In US10322132B2, “Prevention or treatment of uratic or gouty diseases” (SHANTON PHARMA CO., LTD., priority 2015, dated 2019):

How the values were obtained:
[1] = tested on: IL-1β, IL-6, KC and TNFα; test: Air sacculitis (MSU-induced air sacs), cytokines in lavage fluid; settings: 5 mg/kg (dexamethasone intraperitoneal, colchicine intragastric), lavage fluid supernatant, mean, n = 8
Description: (§2) The sterile MSU crystals were added to 5 mL of sterilized saline before injected into air sacs.
(§3) Male Wistar rats were raised for one week and then randomly divided into 6 groups. Animals were anesthetized and then injected with 24 mL of sterile air in their backs. The animals received the second injection of air 4 days later. On day 7, the rats in the blank group and model group were intragastrically administered with the solvent at a dose of 10 mL/kg; the rats in the dexamethasone group were administered by intraperitoneal injection with dexamethasone at a dose of 5 mg/kg; the rats in the colchicine group were intragastrically administered with colchicine at a dose of 5 mg/kg. […] One hour after administration, the rats in the blank group were injected with 5 mL of saline into the air sacs at the back, and the rats from other groups were injected with 5 mL of MSU crystal suspension (1 mg/mL) into the air sacs at the back. Four hours later, the lavage fluid in the air sacs was taken, and a portion of the lavage fluid was used for cytological analysis. The remaining was centrifuged at 8000 rpm for 15 min, and the supernatant was stored at −80° C. for the detection of cytokines IL-1β, IL-6, KC and TNFα. The test results were shown as mean±SEM and statistically analyzed by t-test.

[2] = tested on: MSU-induced air sacs; test: Air sacculitis (MSU-induced air sacs), leukocyte counts in lavage fluid; settings: for Leukocyte count: Basophil / Leukocyte count: Eosinocyte / Leukocyte count: Lymphocyte / Leukocyte count: Monocyte / Leukocyte count: Neutrophil / Total cell count: 5 mg/kg (dexamethasone intraperitoneal, colchicine intragastric), lavage fluid 4 h after MSU, mean ± SEM, n = 8;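 for all read-outs here: male Wistar rats with dorsal air sacs, dosed 1 h before injecting MSU crystal suspension, compared with saline-injected blank and vehicle-treated model groups, cytological analysis of lavage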
Description: as §2, §3

[3] = Pharmacokinetics experiment in cynomolgus monkeys, intravenous; type: in vivo, cynomolgus monkeys (Macaca fascicularis); settings: 3 mg/kg, Mean ± SD, n = 3
Description: Three non-naïve cynomolgus monkeys were administered with test compounds A, B and D at a dose of 5 mg/kg by intravenous injection and with test compound C at a dose of 3 mg/kg by intravenous injection, with one compound being tested at a time. Blood was collected from the vein before administration and 1 h, 3 h, 6 h and 24 h after administration, and plasma was isolated. The plasma was analyzed by a 4000 Q Trap LC-MS/MS instrument. The concentrations of the test samples were output by Analyst 1.6.1 from AB Company. The parameters ( ) such as the mean, standard deviation, and coefficient of variation were calculated using Microsoft Excel, wherein the values directly output by Analyst 1.6.1 requires no calculation. PK parameters were calculated using Pharsight Phoenix 6.2 software (NCA model).

[4] = tested on: serum uric acid; test: Uric acid-lowering experiment in cynomolgus monkeys; type: in vivo; design: Reduction rate of serum uric acid: concentration or dose not given beside the values; settings: for Reduction rate of serum uric acid / Content of serum uric acid: intravenous; for Reduction rate of serum uric acid: 24 h after administration vs before administration; for Content of serum uric acid: 24 h after administration
Description: The experiment was done by reference to Komoriya K, Osada Y, Hasegawa M, Horiuchi H, Kondo S, Couch R C, Griffin T B. Hypouricemic effect of allopurinol and the novel xanthine oxidase inhibitor TEI-6720 in chimpanzees. Eur J Pharmacol. 1993 Dec. 21; 250(3): 455-60.
Each compound was tested in three non-naïve cynomolgus monkeys (1 #, 2 # and 3 #), wherein the monkeys were administered with test samples by intravenous injection. Blood was collected from the vein before administration and 1 h, 3 h, 6 h and 24 h after administration. The blood was left still at room temperature. The serum was collected by centrifugation. The content of uric acid in serum was measured. Reduction rate of serum uric acid=(average uric acid content before administration−average uric acid content after administration)/average uric acid content before administration*100%.

[5] = tested on: MSU-induced gouty arthritis; test: MSU-induced gouty arthritis, toe volume; type: in vivo, Male Wistar rats; settings: for Inhibition of toe volume change (%): vs model group; for effect on increase of the toe volumes in the test rats (in words): compared with the model group
Description: The experiment was done by reference to Hsin-Pai Lee, Shi-Ying Huang, Yen-You Lin. Soft Coral-Derived Lemnalol Alleviates Monosodium Urate-Induced Gouty Arthritis in Rats by Inhibiting Leukocyte Infiltration and iNOS, COX-2 and c-Fos Protein Expression. […] 2013, 11, 99-113.
One gram of uric acid was weighed, introduced into 200 mL of boiling water and heated. Then, NaOH (2 mol/L) was added until pH reached 9. The solution became clear, and was cooled at room temperature and then left still overnight. MSU was obtained after filtration, which was dried at 60° C. for 24 h and then sterilized at a high temperature of 180° C.
(§1) The toe volumes of the rats were measured one day prior to the experiment. The rats were administered with the solvent by subcutaneous injection in the model group at a dose of 5 mL/kg, while the rats were administered with test samples by subcutaneous injection in administration groups at a dose of 5 mg/kg. Rats were anesthetized immediately after administration and were injected with 0.09 mL of MSU suspension into the joint cavity of the left ankle. The volume of the left toe was measured in rats 9 h after the injection of MSU into the ankle joint cavity.
as §1, with “dose of 15 mL/kg, while” for “dose of 5 mL/kg, while”, “dose of 15 mg/kg or 10 mg/kg. Rats” for “dose of 5 mg/kg. Rats”
The toe volumes of rats were measured one day prior to the experiment. The rats were administered with the solvent by subcutaneous injection in the model group at a dose of 15 mL/kg, while the rats were administered with the test sample by subcutaneous injection in administration group at a dose of 15 mg/kg. Rats were anesthetized immediately after administration and were injected with 0.09 mL of MSU suspension into the joint cavity of the left ankle. The volume of the left toe in each rat was measured 9 h after the injection of MSU into the ankle joint cavity.

[6] = tested on: MSU-induced gouty arthritis; test: Pain value in rats with gouty arthritis (electronic Von Frey pain threshold detector); type: in vivo, Male Wistar rats
Description: The rats with gouty arthritis were placed in a metabolic cage, and the palm center of the left foot of each rat was irritated with an electronic Von Frey pain threshold detector. The maximum stress value was recorded when each rat withdrew its foot, and the value was the pain value of that rat.

[7] = tested on: TNF-α; test: LPS-induced TNF-α release; type: in vivo, Male BALB/C mice
Description: The experiment was conducted by reference to Pascale Gaillard, Isabelle Jeanclaude-Etter, etc. Design and Synthesis of the First Generation of Novel Potent, Selective, and in Vivo Active (Benzothiazol-2-yl)acetonitrile
BALB/C mice were raised in the SPF-grade animal room for 1 week, and were then randomly divided into the corresponding model group and the administration groups according to the body weight. The […] were administered with the solvent or the test samples by subcutaneous injection at a dose of 10 mg/kg. The rats were administered with LPS by intraperitoneal injection at a dose of 15 mg/kg 30 min after the administration of the solvent or the test samples. The mice were anesthetized with sodium pentobarbital (45 mg/kg by intraperitoneal injection) 1 h after LPS administration. The blood was collected by cardiac puncture, and the content of TNF-α (tumor necrosis factor) in plasma was measured with a Mouse TNF-α Elisa Ready-set-go kit.

[8] = tested on: IFNγ; test: ConA-induced IFNγ release; type: in vivo, Male C57BL/6 mice
Description: The experiment was conducted by reference to Dalya R. Soondl, Elisa Bjørgo, etc. PI3K p110δ regulates T cell cytokine production during primary and secondary immune responses in mice and humans. Blood. Author manuscript; available in PMC 2013 Mar. 11; and Gabriele Sass, Sonja Heinlein, etc. CYTOKINE EXPRESSION IN THREE MOUSE MODELS OF EXPERIMENTAL HEPATITIS. CYTOKINE, Vol. 19, No. 3 (7 Aug.), 2002: pp 115-120.
The C57BL/6 mice were raised in the SPF-grade animal room for 1 week, and were then randomly divided into the corresponding model group and the administration groups according to the body weight. The […] were administered with ConA by the tail vein injection at a dose of 15 mg/kg 30 min after the administration of the solvent or the test samples by subcutaneous injection at a dose of 20 mg/kg. After the mice were anesthetized with sodium pentobarbital (45 mg/kg by intraperitoneal injection) 3 h after administration of ConA, the blood was collected by cardiac puncture. The blood was placed in the centrifuge tube without anticoagulant and left still at room temperature. One hour later, the blood was centrifuged. The serum was extracted and stored at −80° C. The content of IFNγ (γ-interferon) in the serum was detected by a Mouse IFNγ Elisa

[9] = Example 5, 10 mg/kg subcutaneous, 9 h after MSU

With C[C@@H]1C[C@H]2[C@@H]3CCC4=CC(=O)C=C[C@]4(C)[C@@]3(F)[C@@H](O)C[C@]2(C)[C@@]1(O)C(=O)CO [Dexamethasone, dexamethasone, reference compound] the “IL-1β” value [1] was 27.8 pg/mL, the “KC” value [1] was 1653.5 pg/mL and the “TNF-α” value [1] was 6.6 pg/mL. For the same compound, the “Leukocyte count: Basophil” value [2] was 0 ± 0 *10^4/air sacs, the “Leukocyte count: Eosinocyte” value [2] was 4.8 ± 1.6 *10^4/air sacs and the “Leukocyte count: Lymphocyte” value [2] was 7.5 ± 1.1 *10^4/air sacs. For the same compound, the “Leukocyte count: Monocyte” value [2] was 171.0 ± 19.2 *10^4/air sacs, the “Leukocyte count: Neutrophil” value [2] was 13.8 ± 2.4^$ *10^4/air sacs and the Total cell count [2] was 197.2 ± 22.8^$$ *10^4/air sacs.

In the case of COc1cc2c(c(OC)c1OC)-c1ccc(OC)c(=O)cc1[C@@H](NC(C)=O)CC2 [Colchicine, colchicine, reference compound], the “IL-1β” value [1] is reported as 112.6 pg/mL, the “KC” value [1] is reported as 9892.7 pg/mL and the “TNF-α” value [1] is reported as 32.2 pg/mL. The “Leukocyte count: Basophil” value [2] was 0 ± 0 *10^4/air sacs, the “Leukocyte count: Eosinocyte” value [2] was 7.8 ± 2.0 *10^4/air sacs and the “Leukocyte count: Lymphocyte” value [2] was 12.1 ± 2.5 *10^4/air sacs. For the same compound, the “Leukocyte count: Monocyte” value [2] was 171.7 ± 20.1 *10^4/air sacs, the “Leukocyte count: Neutrophil” value [2] was 21.3 ± 6.6^$ *10^4/air sacs and the Total cell count [2] was 212.9 ± 28.8^$ *10^4/air sacs. For the same compound, the “effect on increase of the total cell count and neutrophil count in the lavage fluid caused by MSU (in words)” value ([2]; compound A at the oral doses of 30 mg/kg and 100 mg/kg) was “significantly inhibit”.

For CCCCn1c(=O)n(C)c(=O)c2[nH]c(Cl)nc21 [Compound C, 8-chloro-1-methyl-3-butyl-3,7-dihydro-1H-purine-2,6-dione], the “t1/2z” value [3] was 41.49 ± 12.31 h, the “effect on serum uric acid levels in the test monkeys (in words)” value ([4]; compared to the levels measured before administration) was “significantly reduce” and the “Reduction rate of serum uric acid” value ([4]; animal 1#) was 20.3%. For the same compound, the “Reduction rate of serum uric acid” value ([4]; animal 2#) was 41.0%, the “Reduction rate of serum uric acid” value ([4]; animal 3#) was 13.9% and the “Reduction rate of serum uric acid” value ([4]; mean) was 25.7%. The “Content of serum uric acid” value ([4]; animal 1#) was 45.8 µmol/L, the “Content of serum uric acid” value ([4]; animal 2#) was 38.3 µmol/L and the “Content of serum uric acid” value ([4]; animal 3#) was 50.7 µmol/L. For the same compound, the “Content of serum uric acid” value ([4]; mean) was 44.9 µmol/L, the “Change of toe volume” value ([5]; Example 4, 5 mg/kg subcutaneous, 9 h after MSU injection into left ankle joint cavity) was 0.451 mL and the “Inhibition of toe volume change (%)” value ([5]; Example 4, 5 mg/kg subcutaneous, 9 h after MSU) was 10.5%. The “effect on increase of the toe volumes in the test rats (in words)” value ([5]; Example 4, 5 mg/kg) was “significantly inhibit”, the “Toe volume change” value [5, 9] was 0.261 mL and the “Inhibition of toe volume change (%)” value [5, 9] was 35.4%. The “effect on increase of the toe volumes in the test rats (in words)” value ([5]; Example 5, 15 mg/kg or 10 mg/kg) was “significantly inhibit”, the “Pain value” ([6]; Example 5, 10 mg/kg subcutaneous, left foot, Von Frey) was 43.46 g and the “effect on pain values in the test rats (in words)” value ([6]; Example 5, compared with the model group) was “significantly increase”. The “inhibition (%)” value ([7]; TNF-α in plasma vs model group, 10 mg/kg subcutaneous) was 24.4%, the “effect on content of TNF-α in the plasma of the test mice (in words)” value ([7]; compared with the model group) was “significantly reduce” and the “Content of TNF-α” value ([7]; plasma, 10 mg/kg subcutaneous 30 min before LPS 15 mg/kg i.p., 1 h after LPS) was 1208 pg/mL. For the same compound, the “inhibition (%)” value ([8]; IFN-γ in serum vs model group, 20 mg/kg subcutaneous) was 19.4%, the “effect on content of IFNγ in the serum of the test mice (in words)” value ([8]; compared with the model group) was “significantly reduce” and the “Content of IFN-γ” value ([8]; serum, 20 mg/kg subcutaneous 30 min before ConA 15 mg/kg tail vein, 3 h after ConA) was 2644 pg/mL.
